Experiment: LogP by HPLC on reversed phase columns (EEC directive 79/831 Annex V.A8), method [a]
Type: physicochemical
Settings: LC-UV, acidic range, 0.1% formic acid in water and acetonitrile as eluent (linear gradient 10% to 95% acetonitrile); for chromatographic logP: reversed phase HPLC column

Row | LogP[a] | chromatographic logP | SMILES
1 | 3.23 | – | Cc1c(NC(=O)c2cccnc2C(F)F)cccc1OCc1ncc(C(F)(F)F)cc1Cl [Example 17]
2 | 3.92 | – | Cc1c(CCC2CC2(Cl)Cl)cccc1NC(=O)c1c(C(F)F)ccnc1C(F)F (centres unmarked) [Example 1]
3 | 3.70 | – | Cc1c(NC(=O)c2cccnc2C(F)F)cccc1OC(C)c1cccc(C(F)(F)F)c1 (centres unmarked) [Example 53]
4 | 3.74 | – | Cc1c(NC(=O)c2cccnc2C(F)F)cccc1OCCc1ccccc1C(F)(F)F [Example 59]
5 | 3.65 | – | Cc1c(NC(=O)c2cccnc2C(F)F)cccc1OC(C)CSc1ccccc1 (centres unmarked) [Example 70]
6 | 3.92 | – | Cc1c(CCC(C)(C)C)cccc1NC(=O)c1cccnc1C(F)F [Example 74]
7 | 2.21 | – | Cc1c(NC(=O)c2cccnc2C(F)F)cccc1S(=O)(=O)C1CCCC1 [Example 105]
8 | 3.06 | – | Cc1c(NC(=O)c2cccnc2C(F)F)cccc1OCc1ccccc1F [Example 41]
9 | 3.90 | – | Cc1c(NC(=O)c2cccnc2C(F)F)cccc1OC(C)Cc1ccc(Cl)cc1 (centres unmarked) [Example 67]
10 | 4.06 | – | Cc1c(NC(=O)c2cccnc2C(F)F)cccc1OC(C)C1CCCC1 (centres unmarked) [Example 85]
11 | 3.52 | – | Cc1c(NC(=O)c2cccnc2C(F)F)cccc1OCc1cccc(C(F)(F)F)c1 [Example 38]
12 | – | 2.6 | Cc1c(NC(=O)c2cccnc2C(F)F)cccc1-c1cncc(C(F)(F)F)c1 [Example 110, 2-(difluoromethyl)-N-{2-methyl-3-[5-(trifluoromethyl)pyridin-3-yl]phenyl}nicotinamide]
13 | 2.02 | – | Cc1c(NC(=O)c2cccnc2C(F)F)cccc1C1CCCO1 (centres unmarked) [Example 82]
14 | 2.17 | – | Cc1c(NC(=O)c2cccnc2C(F)F)cccc1NC1CCCC1 [Example 107]
15 | 3.22 | – | O=C(Nc1cccc(-c2ccccc2Cl)c1Cl)c1cccnc1C(F)F [Example 7]
16 | 3.17 | – | Cc1c(NC(=O)c2cccnc2C(F)F)cccc1OCC(C)C [Example 13]
17 | 3.57 | – | Cc1c(NC(=O)c2cccnc2C(F)F)cccc1OCc1ccc(C(F)(F)F)cc1 [Example 73]
18 | 3.37 | – | Cc1c(NC(=O)c2cccnc2C(F)F)cccc1OC(C)c1ccccc1F (centres unmarked) [Example 57]
19 | 3.65 | – | Cc1c(NC(=O)c2cccnc2C(F)F)cccc1OCCc1ccccc1Cl [Example 64]
20 | 3.65 | – | Cc1c(NC(=O)c2cccnc2C(F)F)cccc1OC(C)c1ccc(Cl)cc1 (centres unmarked) [Example 47]
21 | 3.68 | – | Cc1c(NC(=O)c2cccnc2C(F)F)cccc1OCCc1cccc(C(F)(F)F)c1 [Example 60]
22 | 3.68 | – | Cc1ccc(OCC(C)Oc2cccc(NC(=O)c3cccnc3C(F)F)c2C)cc1 (centres unmarked) [Example 31]
23 | 3.99 | – | Cc1c(NC(=O)c2cccnc2C(F)F)cccc1OCc1ccc(Cl)cc1Cl [Example 46]
24 | 3.29 | – | Cc1c(NC(=O)c2cccnc2C(F)F)cccc1OCCc1ccc(F)cc1 [Example 63]
25 | 3.90 | – | Cc1c(NC(=O)c2cccnc2C(F)F)cccc1OC(C)Cc1ccccc1Cl (centres unmarked) [Example 69]

Row | LogP[a] | chromatographic logP | SMILES
26 | 3.48 | – | Cc1c(NC(=O)c2cccnc2C(F)F)cccc1Oc1ncc(C(F)(F)F)cc1Cl [Example 18]
27 | 2.86 | – | CCC(CC)Nc1cccc(NC(=O)c2cccnc2C(F)F)c1C [Example 106]
28 | 3.79 | – | Cc1c(NC(=O)c2cccnc2C(F)F)cccc1OC(C)c1ccccc1Cl (centres unmarked) [Example 50]
29 | 3.74 | – | Cc1ccccc1OCC(C)Oc1cccc(NC(=O)c2cccnc2C(F)F)c1C (centres unmarked) [Example 32]
30 | 4.03 | – | CC(Oc1cccc(NC(=O)c2ccc(Cl)nc2C(F)F)c1C(F)(F)F)c1ccccc1 (centres unmarked) [Example 103]
31 | 3.41 | – | Cc1c(NC(=O)c2cccnc2C(F)F)cccc1OC(C)C(C)C (centres unmarked) [Example 14]
32 | 3.96 | – | Cc1c(NC(=O)c2cccnc2C(F)F)cccc1OCc1cc(Cl)cc(Cl)c1 [Example 42]
33 | 3.52 | – | Cc1c(NC(=O)c2cccnc2C(F)F)cccc1OC1CCCCC1 [Example 16]
34 | 2.34 | – | CCOc1cccc(NC(=O)c2cccnc2C(F)F)c1C [Example 118]
35 | 3.31 | – | Cc1c(NC(=O)c2cccnc2C(F)F)cccc1OC(C)COC(C)(C)C (centres unmarked) [Example 24]
36 | 2.43 | – | Cc1c(NC(=O)c2cccnc2C(F)F)cccc1C1CC1 [Example 122]
37 | 3.49 | – | O=C(Nc1cccc(-c2cccc(Cl)c2)c1Cl)c1cccnc1C(F)F [Example 8]
38 | 3.69 | – | Cc1cnc(C(F)F)c(C(=O)Nc2cccc(OC(C)c3ccccc3)c2C(F)(F)F)c1 (centres unmarked) [Example 102]
39 | 3.55 | – | Cc1c(NC(=O)c2cccnc2C(F)F)cccc1OCc1ccccc1C(F)(F)F [Example 39]
40 | 3.42 | – | CC(Oc1cccc(NC(=O)c2cccnc2C(F)F)c1C(F)(F)F)c1ccccc1 (centres unmarked) [Example 101]
41 | 2.99 | – | O=C(Nc1cccc(-c2ccccc2F)c1Cl)c1cccnc1C(F)F [Example 4]
42 | 3.80 | – | Cc1c(NC(=O)c2cccnc2C(F)F)cccc1C1CC2CCC1C2 (centres unmarked) [Example 81]
43 | 3.55 | – | CCC(CC)Oc1cccc(NC(=O)c2cccnc2C(F)F)c1C(F)(F)F [Example 92]
44 | 3.87 | – | Cc1c(NC(=O)c2cccnc2C(F)F)cccc1OC(C)c1ccccc1C(F)(F)F (centres unmarked) [Example 55]
45 | 2.80 | – | CC(C)Oc1cccc(NC(=O)c2cccnc2C(F)F)c1C(F)(F)F [Example 99]
46 | 3.37 | – | Cc1c(NC(=O)c2cccnc2C(F)F)cccc1OC(C)Cc1cccs1 (centres unmarked) [Example 72]
47 | 4.21 | – | Cc1c(NC(=O)c2cccnc2C(F)F)cccc1OC(C)CC(C)(C)C (centres unmarked) [Example 84]
48 | 3.83 | – | CCC(C)Oc1cccc(NC(=O)c2ccc(Cl)nc2C(F)F)c1C(F)(F)F (centres unmarked) [Example 96]
49 | 2.82 | – | Cc1c(NC(=O)c2cccnc2C(F)F)cccc1OCc1cccs1 [Example 71]
50 | 3.59 | – | Cc1c(NC(=O)c2cccnc2C(F)F)cccc1OC(C)COc1ccccc1Cl (centres unmarked) [Example 35]

Further lines, the molecule ahead of its results:

Row | SMILES | LogP[a] | chromatographic logP
51 | Cc1c(NC(=O)c2cccnc2C(F)F)cccc1OC(C)C1CCOC1 (centres unmarked) [Example 27] | 2.26 | –
52 | Cc1c(NC(=O)c2cccnc2C(F)F)cccc1OC(C)(C)C(C)C [Example 117] | 3.61 | –
53 | Cc1c(NC(=O)c2cccnc2C(F)F)cccc1C1CCCCC1(C)C (centres unmarked) [Example 116] | 4.31 | –
54 | Cc1cccc(OCC(C)Oc2cccc(NC(=O)c3cccnc3C(F)F)c2C)c1 (centres unmarked) [Example 33] | 3.68 | –
55 | Cc1c(NC(=O)c2cccnc2C(F)F)cccc1N1CCCC1 [Example 104] | 0.79 | –
56 | O=C(Nc1cccc(OC2CCCC2)c1C(F)(F)F)c1cccnc1C(F)F [Example 91] | 3.33 | –
57 | O=C(Nc1cccc(-c2ccccc2)c1Cl)c1cccnc1C(F)F [Example 3] | 3.05 | –
58 | Cc1cnc(C(F)F)c(C(=O)Nc2cccc(OC(C)C)c2C(F)(F)F)c1 [Example 98] | 3.04 | –
59 | Cc1c(NC(=O)c2cccnc2C(F)F)cccc1OC(C)Cc1ccccc1 (centres unmarked) [Example 88] | 3.62 | –
60 | CCO/N=C\C(C)Oc1cccc(NC(=O)c2cccnc2C(F)F)c1C (centres unmarked) [Example 29] | 2.82 | –
61 | Cc1ccc(-c2cccc(NC(=O)c3cccnc3C(F)F)c2C)s1 [Example 111] | 3.19 | –
62 | CCCC(CC)Oc1cccc(NC(=O)c2cccnc2C(F)F)c1C(F)(F)F (centres unmarked) [Example 93] | 3.92 | –
63 | Cc1c(NC(=O)c2cccnc2C(F)F)cccc1OC(C)COc1cccc(Cl)c1 (centres unmarked) [Example 34] | 3.76 | –
64 | O=C(Nc1cccc(OCc2ccccc2)c1C(F)(F)F)c1cccnc1C(F)F [Example 100] | 3.13 | –
65 | Cc1c(NC(=O)c2cccnc2C(F)F)cccc1OCCC(F)(F)F [Example 120] | 2.68 | –
66 | Cc1c(NC(=O)c2c(C(F)F)ccnc2C(F)F)cccc1OC1CCCC1 [Example 123] | 3.70 | –
67 | CCC(C)Oc1cccc(NC(=O)c2cccnc2C(F)F)c1C(F)(F)F (centres unmarked) [Example 94] | 3.17 | –
68 | Cc1c(NC(=O)c2cccnc2C(F)F)cccc1OCC(F)(F)F [Example 119] | 2.55 | –

Row | SMILES | LogP[a] | chromatographic logP
69 | Cc1c(NC(=O)c2cccnc2C(F)F)cccc1OCc1ccc(Br)cc1 [Example 19] | 3.55 | –
70 | Cc1c(NC(=O)c2cccnc2C(F)F)cccc1N(C)C [Example 108] | 0.45 | –
71 | Cc1c(NC(=O)c2cccnc2C(F)F)cccc1OCC1CCCCC1 [Example 77] | 4.14 | –
72 | C#CCOCC(C)Oc1cccc(NC(=O)c2cccnc2C(F)F)c1C (centres unmarked) [Example 21] | 2.47 | –
73 | Cc1c(NC(=O)c2cccnc2C(F)F)cccc1C1CCCCO1 (centres unmarked) [Example 80] | 2.53 | –
74 | Cc1c(NC(=O)c2cccnc2C(F)F)cccc1OC(C)C1(Cl)CC1 (centres unmarked) [Example 25] | 3.06 | –
75 | Cc1c(NC(=O)c2cccnc2C(F)F)cccc1-c1cnn(C(C)C)c1 [Example 113] | 2.17 | –
76 | Cc1c(NC(=O)c2cccnc2C(F)F)cccc1OCc1ccccc1Cl [Example 37] | 3.41 | –
77 | Cc1c(NC(=O)c2cccnc2C(F)F)cccc1OC(C)c1cc(Cl)ccc1Cl (centres unmarked) [Example 56] | 4.15 | –
78 | Cc1c(NC(=O)c2cccnc2C(F)F)cccc1OC1CCCC1 [Example 75] | 3.21 | –
79 | CCCC(CC)Oc1cccc(NC(=O)c2cccnc2C(F)F)c1C (centres unmarked) [Example 83] | 3.94 | –
80 | O=C(Nc1cccc(-c2cc(F)ccc2F)c1Cl)c1cccnc1C(F)F [Example 2] | 3.11 | –
81 | O=C(Nc1cccc(-c2ccc(F)cc2)c1Cl)c1cccnc1C(F)F [Example 6] | 3.12 | –
82 | Cc1c(NC(=O)c2cccnc2C(F)F)cccc1OC(C)c1ccccc1 (centres unmarked) [Example 89] | 3.33 | –
83 | CCCC(C)Oc1cccc(NC(=O)c2cccnc2C(F)F)c1C (centres unmarked) [Example 79, 2-(difluoromethyl)-N-[2-methyl-3-(pentan-2-yloxy)phenyl]nicotinamide] | – | 3.48
84 | Cc1c(NC(=O)c2cccnc2C(F)F)cccc1OCc1cccc(Br)c1 [Example 54] | 3.52 | –
85 | Cc1c(NC(=O)c2cccnc2C(F)F)cccc1OC(C)c1ccc(Cl)cc1Cl (centres unmarked) [Example 115] | 4.41 | –
86 | CCCC(CCC)Oc1cccc(NC(=O)c2cccnc2C(F)F)c1C [Example 12] | 4.26 | –

Reference: US20180057462A1, “Substituted 2-difluoromethyl-nicotin(thio)carboxanilide derivatives and their use as fungicides” (BAYER CROPSCIENCE AKTIENGESELLSCHAFT, priority 2015, published 2018)
